According to patent US20260285850A1, “SUBSTITUTED OXAZOLIDINONES AND IMIDAZOLINONES AS HERBICIDES” (FMC CORPORATION, priority 2023, published 2026):

Legend:
Format in all cases: in vivo
[1] = test system: oat, wild (wild oat, Avena fatua); test: Test A postemergence application, visual injury rating 0-100
In short: (§1)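 Greenhouse test: loam/sand pots received a surfactant-containing formulation, as a preemergence directed soil spray or a postemergence spray on young plants. Injury was judged visually at day 10 relative to untreated controls.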

[2] = test system: blackgrass (Alopecurus myosuroides); test: as above
In short: as §1

kochia (Bassia scoparia) [3] = test: as above
In short: as §1

[4] = test system: green foxtail (Setaria viridis); test: as above
In short: as §1

[5] = test system: palmer (palmer amaranth, palmer pigweed, Amaranthus palmeri); test: as above
In short: as §1

soybean (Glycine max) [6] = test: as above
In short: as §1

[7] = test system: barnyardgrass (Echinochloa crus-galli); test: as above
In short: as §1

[8] = test system: galium (catchweed bedstraw, Galium aparine); test: as above
In short: as §1

[9] = test system: ragweed (common ragweed, Ambrosia artemisiifolia); test: as above
In short: as §1

[10] = test system: ryegrass, Italian (italian ryegrass, Lolium multiflorum); test: as above
In short: as §1

corn (Zea mays) [11] = test: as above
In short: as §1

[12] = test system: wheat (Triticum aestivum); test: as above
In short: as §1

[13] = test system: horseweed (Erigeron canadensis); test: as above
In short: as §1

[14] = test system: barnyardgrass (Echinochloa crusgalli); test: Test B flooded paddy test, visual plant response rating 0-100; details: 250 g ai/ha, Flood, applied to paddy water, evaluated after 13 days
In short: (§2)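 Paddy-water application: test compounds went directly into water flooded 3 cm above the soil surface, with plants at 2 leaves. After a 13-day greenhouse period, responses were judged by eye relative to controls; a dash marks an untested entry.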

[15] = test system: ducksalad (Heteranthera limosa); test: as above; details: 250 g ai/ha, Flood, applied to paddy water, evaluated after 13 days
In short: as §2

rice (Oryza sativa) = test: as above; details: 250 g ai/ha, Flood, applied to paddy water, evaluated after 13 days
In short: as §2

[16] = test system: sedge, umbrella (small-flower umbrella sedge, Cyperus difformis); test: as above; details: 250 g ai/ha, Flood, applied to paddy water, evaluated after 13 days
In short: as §2

[17] = test system: oat, wild (wild oat, Avena fatua); test: Test A preemergence soil spray, visual injury rating 0-100; details: 10 days
In short: as §1

[18] = test system: blackgrass (Alopecurus myosuroides); test: as above; details: 10 days
In short: as §1

kochia (Bassia scoparia) [19] = test: as above; details: 10 days
In short: as §1

[20] = test system: green foxtail (Setaria viridis); test: as above; details: 10 days
In short: as §1

[21] = test system: palmer (palmer amaranth, palmer pigweed, Amaranthus palmeri); test: as above; details: 10 days
In short: as §1

soybean (Glycine max) [22] = test: as above; details: 10 days
In short: as §1

[23] = test system: barnyardgrass (Echinochloa crus-galli); test: as above; details: 10 days
In short: as §1

[24] = test system: ragweed (common ragweed, Ambrosia artemisiifolia); test: as above; details: 10 days
In short: as §1

[25] = test system: ryegrass, Italian (italian ryegrass, Lolium multiflorum); test: as above; details: 10 days
In short: as §1

corn (Zea mays) [26] = test: as above; details: 10 days
In short: as §1

[27] = test system: wheat (Triticum aestivum); test: as above; details: 10 days
In short: as §1

[28] = 62 g ai/ha, postemergence, 10 days, 0 = no effect, 100 = complete control
[29] = Postemergence, 16 g ai/ha, greenhouse 10 days, 0 no effect, 100 complete control
[30] = 62 g ai/ha, 0 = no effect, 100 = complete control

COC(=O)C1C=CC(NC(=O)C2(C)CN(c3cc(F)cc(F)c3)C(=O)O2)C1 (mixture of isomers) [Compound 161]
85: Plant response rating, Rice (0 to 100 scale, 0 is no effect and 100 is complete control) (rice (Oryza sativa))
100: Barnyardgrass plant response rating (0-100) [7, 28] | Corn plant response rating (0-100) (corn (Zea mays) [11]; [28]) | Corn plant response rating (0 to 100 scale) (corn (Zea mays) [11]; [29]) | Foxtail, Green plant response rating (0-100) [20, 30] | Pigweed, Palmer plant response rating (0-100) [21, 30] | Barnyardgrass plant response rating (0-100) [23, 30]
10: Ragweed plant response rating ([24]; 16 g ai/ha, 0 to 100 scale)
95: Plant response rating, Sedge, Umbrella (0 to 100 scale, 0 is no effect and 100 is complete control) [16]
40: Pigweed, Palmer plant response rating (0 to 100 scale) [5, 29]
0: Kochia plant response rating (0 to 100 scale) (kochia (Bassia scoparia) [3]; [29]) | Kochia plant response rating (kochia (Bassia scoparia) [19]; 16 g ai/ha, 0 to 100 scale) | Soybean plant response rating (soybean (Glycine max) [22]; 16 g ai/ha, 0 to 100 scale)
80: Barnyardgrass plant response rating (0 to 100 scale) [7, 29] | Galium plant response rating (0 to 100 scale) [8, 29] | Ryegrass, Italian plant response rating (0-100) [10, 28] | Plant response rating, Ducksalad (0 to 100 scale, 0 is no effect and 100 is complete control) [15] | Barnyardgrass plant response rating ([23]; 16 g ai/ha, 0 to 100 scale) | Corn plant response rating (0-100) (corn (Zea mays) [26]; [30]) | Wheat plant response rating ([27]; 16 g ai/ha, 0 to 100 scale)
70: Pigweed, Palmer plant response rating (0-100) [5, 28] | Soybean plant response rating (0-100) (soybean (Glycine max) [6]; [28]) | Ragweed plant response rating (0-100) [9, 28] | Ryegrass, Italian plant response rating (0 to 100 scale) [10, 29] | Horseweed plant response rating (0-100) [13, 28] | Blackgrass plant response rating ([18]; 16 g ai/ha, 0 to 100 scale)
30: Kochia plant response rating (0-100) (kochia (Bassia scoparia) [3]; [28]) | Oat, Wild plant response rating ([17]; 16 g ai/ha, 0 to 100 scale) | Foxtail, Green plant response rating ([20]; 16 g ai/ha, 0 to 100 scale) | Corn plant response rating (corn (Zea mays) [26]; 16 g ai/ha, 0 to 100 scale)
60: Foxtail, Green plant response rating (0 to 100 scale) [4, 29] | Soybean plant response rating (0 to 100 scale) (soybean (Glycine max) [6]; [29]) | Horseweed plant response rating (0 to 100 scale) [13, 29] | Plant response rating, Barnyardgrass (0 to 100 scale, 0 is no effect and 100 is complete control) [14]
90: Oat, Wild plant response rating (0-100) [1, 28] | Oat, Wild plant response rating (0 to 100 scale) [1, 29] | Blackgrass plant response rating (0-100) [2, 28] | Blackgrass plant response rating (0 to 100 scale) [2, 29] | Foxtail, Green plant response rating (0-100) [4, 28] | Galium plant response rating (0-100) [8, 28] | Wheat plant response rating (0-100) [12, 28] | Wheat plant response rating (0 to 100 scale) [12, 29] | Oat, Wild plant response rating (0-100) [17, 30] | Blackgrass plant response rating (0-100) [18, 30] | Pigweed, Palmer plant response rating ([21]; 16 g ai/ha, 0 to 100 scale) | Ryegrass, Italian plant response rating ([25]; 16 g ai/ha, 0 to 100 scale) | Ryegrass, Italian plant response rating (0-100) [25, 30] | Wheat plant response rating (0-100) [27, 30]
50: Ragweed plant response rating (0 to 100 scale) [9, 29] | Kochia plant response rating (0-100) (kochia (Bassia scoparia) [19]; [30]) | Soybean plant response rating (0-100) (soybean (Glycine max) [22]; [30]) | Ragweed plant response rating (0-100) [24, 30]
